US8912123B2, “Safened herbicidal compositions including 4-amino-3-chloro-5-fluoro-6-(4-chloro-2-fluoro-3-methoxyphenyl)pyridine-2-carboxylic acid or a derivative thereof and methods for their use” (Dow AgroSciences, LLC., priority 2012, dated 2014)

System: winter barley (Hordeum vulgare, HORVW)
Assay: Post-emergence field trial, visual crop injury (ear deformation) in winter barley
Format: in vivo
Details: for Observed Visual Injury - Ear Deformation (%) 227 DAA HORVW: no safener, 1 L/ha Agnique BL3095, post-emergence field, scale 0-100
Experimental: A post-emergence field trial was conducted under field conditions in Helbigsdorf, Germany. Trial site was located in commercially grown fields of winter barley (Hordeum vulgare, HORVW) using standard herbicide small plot research methodology. Postemergence trial plot was 2.5 meter (m)×5 m (width×length) with 3 replicates per treatment. The crop was grown using normal cultural practices for fertilization, seeding, and maintenance to ensure good growth of the crop and the weeds. Trial treatments included spray formulations containing 4-amino-3-chloro-5-fluoro-6-(4-chloro-2-fluoro-3-methoxy-phenyl)pyridine-2-carboxylic acid (Compound A) at various rates and optionally including cloquintocet mexyl. All treatments in the post-emergence field trials were applied using a bicycle sprayer compressed air/gas sprayer with flat fan nozzles (90°) calibrated to apply 200 L/ha spray volume at approximately 250 kPa nozzle pressure. The spray formulations for Trials 1-4 listed in Table 1 included Dow AgroSciences testing formulation Compound A (listed in acid equivalent per hectare (g ae/ha)), Agnique BL3095 (Cognis, France; listed as liters of product per hectare (L pr/ha)), and optionally cloquintocet mexyl (listed as grams of active ingredient per hectare (g ai/ha)). The spray solutions were mixed in water at the levels indicated in Table 1 to achieve the desired rates based on a unit area of application (hectare). Data for observed visual injury is provided for 227 days after application (DAA) in Table 1. Visual crop injury (ear deformation) was scored on a scale of 0 to 100 percent where 0 corresponds to no injury and 100 correspond to damage at all plants. All treatment results, both for the single product and mixture, are with 4 replicates. The trial sites had naturally occurring populations of weeds. The weed spectrum included loose silky-bent ([…]).

SMILES	Observed Visual Injury - Ear Deformation (%) 227 DAA HORVW (Compound A 10 g ae/ha)	Observed Visual Injury - Ear Deformation (%) 227 DAA HORVW (Compound A 20 g ae/ha)	Observed Visual Injury - Ear Deformation (%) 227 DAA HORVW (Compound A 30 g ae/ha)	Safening of the compound of formula I in winter barley (conclusion from Table 1, winter barley)
COc1c(Cl)ccc(-c2nc(C(=O)O)c(Cl)c(N)c2F)c1F [Compound A, 4-amino-3-chloro-5-fluoro-6-(4-chloro-2-fluoro-3-methoxy-phenyl)pyridine-2-carboxylic acid]	27%	30%	30%	
CCCCCC(C)OC(=O)COc1ccc(Cl)c2cccnc12 (stereo not shown) [cloquintocet-mexyl, reference compound]				safened
